Measured values published in patent US11613780B2, “Materials and methods for identifying gyrase inhibitors” (THE FLORIDA INTERNATIONAL UNIVERSITY BOARD OF TRUSTEES, priority 2016, dated 2023).
Entries after “also recorded” stand apart in the source; their conditions may differ.

How the values were obtained:
[1] = tested on: expression of firefly luciferase under the control of the PgyrA (screen for DNA gyrase inhibitors); test: Firefly luciferase expression from PgyrA divergently coupled to IPTG-induced PT7Al/O4 (luciferase assay); assay type: cell-based, E. coli; details: for expression of firefly luciferase (other antibiotics): FIG. 12F, antibiotics that are not gyrase inhibitors; for expression of firefly luciferase of FL #1181: FL #1181, in the presence of IPTG, FIG. 12E
Description: (§1) FIGS. 5A-5D. (FIG. 5A) and (FIG. 5B) Inhibition of the supercoiling-sensitive PgyrA by E. coli […] on the chromosome. E. coli strains FL1181 (MG1655(DE3)ΔlacZ attTn7::PT7Al/O4lacZ-PgyrAluc; squares) and FL1182 (VS111(DE3)ΔlacZ attTn7::PT7Al/O4lacZ-PgyrAluc; circles) were used. The activities of β-galactosidase (Miller's units) and firefly luciferase (RLU) were plotted against the IPTG concentration added to the cell cultures. […] Overnight cell cultures were diluted 100-fold and grown until OD600 reached 0.2. Then 0.5 mM of IPTG and various concentrations of ciprofloxacin or other antibiotics were added to the cell cultures. After additional 30 min incubation, the activities of β-galactosidase and firefly luciferase were measured as described under Materials and Methods. (FIG. 5C) Ciprofloxacin inhibited the expression of β-galactosidase.
Briefly, a 5.1 kb DNA fragment carrying the divergently coupled PgyrA and PT7Al/O4 promoters with the luc and lacZ genes was inserted to the attTn7 site of the E. coli chromosome (84 min of the chromosome) to generate FL1181 and FL1182. In both strains, the IPTG-inducible PT7Al/O4 controls the expression of β-galactosidase. Using similar approach, the following E. coli strains were generated: FL1181, FL1182, FL1198, FL1199, FL1200, FL1202, FL1203, and FL1204.
Luciferase Assay was used to verify the expression of luciferase in various E. coli strains carrying different plasmid DNA templates. Briefly, E. coli cells carrying different plasmids were grown overnight in LB. Antibiotics were added to LB as needed. The overnight culture was then diluted (1:100) in fresh LB in the presence of different concentrations of IPTG, and grown until the OD600 nm reached approximately 0.5. Next, 50 μl of cells were mixed with 10 μl of 1 M K2HPO4 (pH 7.8) and 20 mM EDTA, quickly frozen in liquid nitrogen for 3 min, and equilibrated to room temperature for 30 min to yield about 60 μl of cell lysate. Then, the cell lysate was added with 300 μl freshly prepared lysis mix containing 1×cell culture lysis reagent (CCLR), 1.25 mg/ml lysozyme, and 2.5 mg/ml BSA, and incubated for 10 min at room temperature. Finally, 100 μl of Luciferase Assay Reagent (Promega Corporation, Madison, Wis.) was added to 20 μl of the cell lysate and used for light measurement by using a Promega GloMax 20/20 Single-Tube Luminometer.

[2] = tested on: expression of β-galactosidase (lacZ) under the control of PT7Al/O4; test: β-galactosidase expression from PT7Al/O4 (Miller's assay); assay type: cell-based, E. coli; details: FL1181 and FL1182, 0.5 mM IPTG, 30 min incubation; FIG. 5C
Description: as §1, with “β-galactosidase. […]” for “β-galactosidase.”
The expression level of β-galactosidase was measured by Miller's assay as described by Miller et al. Briefly, 100 mL of LB was inoculated with 1 mL of overnight bacterial cell culture until OD600 reaches about 0.2. […] After cell debris was removed by centrifugation at 13,000 rpm for 1 min, OD420 and OD550 were measured in a Cary 50 spectrophotometer. β-Galactosidase activities (E) were calculated using the following equation: […]

In the case of CC1(C)S[C@@H]2[C@H](NC(=O)[C@H](N)c3ccccc3)C(=O)N2[C@H]1C(=O)O [ampicillin], the “expression of firefly luciferase (other antibiotics)” value [1] was “inhibited; also recorded: inhibition”.

O=C(O)c1cn(C2CC2)c2cc(N3CCNCC3)c(F)cc2c1=O [ciprofloxacin] was tested, and the “expression of β-galactosidase” value [2] was “inhibited”, the “expression of firefly luciferase” value ([1]; E. coli strains FL1181 and FL1182 (divergently coupled PgyrA and PT7Al/O4), in the presence of IPTG (0.5 mM), 30 min incubation, FIG. 5D) was “substantially increased; also recorded: greatly enhanced; also recorded: specifically enhanced” and the “expression of firefly luciferase of FL #1181” value (from here on “expression … of FL #1181”) [1] was “stimulation”.

For CCN1CCN(c2cc3c(cc2F)c(=O)c(C(=O)O)cn3C2CC2)CC1 [enrofloxacin], the “expression … of FL #1181” value [1] was “stimulation”.

In the case of CCn1cc(C(=O)O)c(=O)c2cc(F)c(N3CCNCC3)cc21 [norfloxacin], the “expression … of FL #1181” value [1] was “stimulation”.

With CN[C@@H]1[C@H](O)[C@H](NC)[C@H]2O[C@@]3(O)C(=O)C[C@@H](C)O[C@H]3O[C@@H]2[C@H]1O [spectinomycin] the “expression of firefly luciferase (other antibiotics)” value [1] was “inhibition”.
